Experimental findings from patent publication US20120115742A1, “METHODS FOR IDENTIFICATION” (Cambridge Enterprise Limited, priority 2009, published 2012) are described below.

In one assay the test system is TNF-alpha. The experiment in a line: Sub-lethal endotoxemia model, serum TNF-alpha after LPS. The assay is classed as in vivo, mouse. The note with it: dose-dependent; BN83250 s.c., valerolactam oral gavage. How it is done: We selected the sub-lethal endotoxemia model in mouse, because this has been well characterised in our laboratory (see for example Fox et al. (2002) J. Med. Chem. 45:360-70; Fox et al. (2005) J. Med. Chem. 48:867-74). The extent of systemic inflammation in response to a single intraperitoneal injection of bacterial lipopolysaccharide (LPS) can be estimated by measuring serum TNF-alpha 2 hours post challenge.
Methods: Mice (CD1 strain; adult males; 6 per group) were treated with BSCI (in an appropriate vehicle) or with vehicle alone by an appropriate route. […] Simultaneously, one set of mice at each BSCI concentration received BIM 23627 at 4 mg/animal (120 mg/kg) by sub-cutaneous injection (a treatment condition known to suppress classical sstr2-mediated signalling, such as GH release, in rats; Tulipano et al. (2002) 143:1218-24). Between 30 mins and 1 hour after dosing (a period when a maximal plasma concentration of BSCI has been achieved), the inflammatory challenge was elicited by intraperitoneal injection of 750 μg of LPS (Sigma; L4130 lot#024K4077; 900,000 EU/mg).
After a further 2 hours, the animals were sacrificed by CO2 asphyxiation, and blood was drawn by cardiac puncture. Serum was prepared by conventional methods, and the level of TNF-alpha in serum was measured using an ELISA (R&D Systems; Murine Quantikine code# MTA00) performed in accordance with the manufacturer's instructions.

The test system of assay [1] is rat peripheral blood leukocytes. Briefly: Rat chemokine-induced PBMC migration assay. The class given is cell-based. How it is done:
Similarly, where human Panc-2H4 cells are used to determine the effect of agents on classical sstr2 targets, the result is compared with the effect of the same agents on chemokine-induced migration of human THP-1 cells. […] For this reason, the ratio of “classical” to “BSCI” activity in Table 3 is calculated separately for rat and human.

The test system of another assay is fetal rat pituicytes. Briefly: Rat pituicyte GH suppression assay. The class given is cell-based. The note with it: Table 3. From the text:
Two different assays for “classical” sstr2 functions were adopted: (1) cultured foetal rat pituitary cells secreted growth hormone which is inhibited by sstr2 agonists in a dose-dependent fashion and (2) selected glucose-sensitive sub-clones of the human Panc-1 cell line secrete insulin which is inhibited by sstr2 agonists in a dose-dependent fashion.
Methods: Cultures of fetal rat pituicytes were established exactly as previously described (Murray et al. (2004) J. Clin. Endocrinol. Metab. 89:3027-32) by enzymatic dispersion. After 48 hrs in low glucose DMEM plus 10% FCS, cells in 48 well plates (5×10^4 cells per well) were washed for 4 hrs in serum-free DMEM and then incubated with test agents at various concentrations for a further 24 hrs in serum-free DMEM. At the end of this period, the conditioned medium was harvested, any cell debris removed by centrifugation and assayed for […] using a commercially available ELISA (Linco; cat# EZRMGH-45K) in accordance with the manufacturer's instructions.
Results were reported as the mean SD, expressed as the fold change from cells in the presence of vehicle only.

A further assay relates to THP-1 cells. The experiment in a line: MCP-1 induced THP-1 cell migration (Transwell/ChemoTx).
Another assay deals with T1, sstr2 (Homo sapiens, UniProt P30874).
T1 construct: with 1×10^6 THP-1 cells in Gey's Balanced Salt Solution, 10 nM [^3H]-BN83250; endogenous in cells; host or cells: THP-1 cells (intact cells, 4 °C)
Briefly: [3H]-BN83250 equilibrium binding to THP-1 cells (Scatchard/competition). The note with it: THP-1 cells, 2 hours at 4° C.; read-out: affinity (Scatchard analysis). How it is done:
Methods: [^3H]-BN83250 was synthesesized from (S,E)-3-(2′,2′-dimethyldodec-4′-enoylamino)-caprolactam by catalytic hydrogenation using tritium gas over a palladium catalyst (CRB Ltd, Cleveland, UK), yielding the tritiated product at a concentration of 270 μM in ethanol with a specific activity of 220Ci/mmol. The (S,E)-3-(2′,2′-dimethyldodec-4′-enoylamino)-caprolactam was prepared as follows: (S,S)-3-amino-caprolactam hydro-pyrrolidine-5-carboxylate (10 mmol) and Na2CO3 (30 mmol) in water (30 ml) were added to a solution of 2,2-dimethyl-dodec-4-enoyl chloride (10 mmol) in dichloromethane (30 ml) at ambient temperature and the reaction was stirred for 12 hours. The organic layer was then separated and the aqueous phase was extracted with additional dichloromethane (2×25 ml). The combined organic layers were dried over Na2CO3 and reduced in vacuo. The residue was purified by silica column chromatography (1:1 EtOAc:hexanes to EtOAc) to give (S,E)-3-(2′,2′-dimethyl-dodec-4′-enoyl)amino-caprolactam as a colourless oil (2.12 g, 63%). The radiolabelled compound was stored in the dark at 4° C. until required. Prior to use the specific activity was adjusted by addition of unlabelled BN83250.
For the analysis of binding, individual reactions were set up (in triplicate for each condition), with 1×10^6 THP-1 cells in Gey's Balanced Salt Solution, 10 nM [^3H]-BN83250 (at 50 Ci/mmol) and various concentrations of (S)-3(2′2′-dimethylpropionoylamino)-tetrahydropyridin-2-one (10 pM to 10 μM). Excess (100 μM) unlabelled BN83250 was used to determine the level of non-specific binding. After 2 hours at 4° C. (conditions previously shown to achieve equilibrium binding, and which prevent uptake of the radioligand that would result in an over-estimate of binding) excess label was washed away by centrifugation (3 washes with 5 ml of Gey's Balanced Salt Solution) and the bound radioactivity was determined by scintillation counting of the solubilised cell pellet.
Hits from this assay were confirmed using conventional Scatchard analysis, exactly as described in Example 4 above.

Where only a bound is given, the exact number is not on record here.

T1 sequence (P30874 whole entry): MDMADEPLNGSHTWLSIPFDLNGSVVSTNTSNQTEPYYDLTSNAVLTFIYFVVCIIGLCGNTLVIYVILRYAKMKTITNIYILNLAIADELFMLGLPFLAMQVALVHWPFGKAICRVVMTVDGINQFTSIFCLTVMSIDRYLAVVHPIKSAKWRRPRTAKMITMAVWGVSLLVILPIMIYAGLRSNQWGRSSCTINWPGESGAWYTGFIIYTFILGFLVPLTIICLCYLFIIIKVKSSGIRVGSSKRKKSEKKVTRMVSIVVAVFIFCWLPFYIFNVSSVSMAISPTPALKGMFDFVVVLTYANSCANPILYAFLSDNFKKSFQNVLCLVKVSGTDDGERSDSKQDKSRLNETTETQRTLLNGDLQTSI

In the case of “(S)-3-(2′,2′-dimethyldodecanoyl)amino-caprolactam [BN83250]”, the “inhibition of LPS-induced systemic inflammation” value with TNF-alpha was “dramatically inhibited”. Further, the ““Classical”:“BSCI” potency ratio, Rat” value in assay [1] (PBMC migration ED50 versus pituicyte GH ED50) came out at 0.0009. Besides, in assay [1] (Table 3), the “Rat chemokine-induced PBMC migration assay Max effect” value stood at 100%. Further, the EC50 with fetal rat pituicytes (read-out: Rat pituicyte GH suppression assay ED50) turned out to be 320 nM. Also, the “Rat pituicyte GH suppression assay Max effect” value in the assay on fetal rat pituicytes (suppression compared to vehicle) was 63%. The ““Classical”:“BSCI” potency ratio, Human” value with THP-1 cells (THP-1 migration ED50 versus Panc-2H4 insulin ED50) is on record as less than 0.00009. Further, the “Human chemokine-induced THP-1 migration assay Max effect” value in the assay on THP-1 cells (Table 3) came to 100%. Moreover, in the assay with THP-1 cells (Table 5), the “Chemokine-induced THP-1 cell migration assay Max Effect” value was 100%. In addition, the RATIO in the assay on THP-1 cells (Table 5, migration ED50 versus insulin ED50) is given as less than 0.00009. The Kd at sstr2 is approximately 80 nM.
